Assay results taken from patent US8658604B2, “Template-fixed beta-hairpin peptidomimetics with protease inhibitory activity” (Polyphor Ltd, priority 2005, dated 2014).
Where two headings read alike, the source gives them in different places. Where a SMILES comes first, the peptide text is derived from it.

Assays:
[1] = molecular target: T1, Chymase, from human skin (Homo sapiens, UniProt P23946); assay: Enzymatic assay, chymase
T1 sequence (P23946 22-247): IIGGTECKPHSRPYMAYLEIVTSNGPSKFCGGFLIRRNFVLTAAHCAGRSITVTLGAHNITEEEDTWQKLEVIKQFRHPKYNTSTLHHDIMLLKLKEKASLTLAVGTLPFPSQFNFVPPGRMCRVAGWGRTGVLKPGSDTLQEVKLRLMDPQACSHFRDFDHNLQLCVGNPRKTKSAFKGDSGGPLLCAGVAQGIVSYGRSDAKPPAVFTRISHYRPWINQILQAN

[2] = molecular target: T2, Elastase from human neutrophils (Homo sapiens, UniProt P08246); assay: Enzymatic assay, elastase; settings: for Elastase at 100 μM %: at 100 μM (stated in cell instead of IC50)
T2 sequence (P08246 30-267): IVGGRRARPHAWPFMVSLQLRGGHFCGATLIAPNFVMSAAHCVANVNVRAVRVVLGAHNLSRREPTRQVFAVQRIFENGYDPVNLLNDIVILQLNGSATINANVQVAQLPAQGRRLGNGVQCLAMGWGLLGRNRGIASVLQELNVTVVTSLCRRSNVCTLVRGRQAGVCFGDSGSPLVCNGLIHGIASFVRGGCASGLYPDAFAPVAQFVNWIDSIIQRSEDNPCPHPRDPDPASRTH

[3] = molecular target: Trypsin, from human pancreas (Homo sapiens, UniProt P07477); assay: Enzymatic assay, trypsin; settings: at 100 μM
[4] = molecular target: T3, CathepsinG, from human neutrophils (Homo sapiens, UniProt P08311); assay: Enzymatic assay, cathepsin G; settings: for Cathepsin G at 100 μM %: at 100 μM (stated in cell instead of IC50)
T3 sequence (P08311 21-244): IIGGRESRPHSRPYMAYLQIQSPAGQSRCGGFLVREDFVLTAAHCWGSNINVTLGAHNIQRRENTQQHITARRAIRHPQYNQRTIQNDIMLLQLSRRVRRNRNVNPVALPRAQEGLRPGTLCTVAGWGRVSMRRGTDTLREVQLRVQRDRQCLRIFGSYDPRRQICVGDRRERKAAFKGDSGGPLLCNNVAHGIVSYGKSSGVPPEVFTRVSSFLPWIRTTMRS

[5] = tested on: Tryptase, from human lung; assay: Enzymatic assay, tryptase; settings: at 100 μM
[6] = molecular target: Thrombin, from Human Plasma (Homo sapiens, UniProt P00734); assay: Enzymatic assay, thrombin
[7] = molecular target: Coagulation Factor Xa, from uman plasma (Homo sapiens, UniProt P00742); assay: Enzymatic assay, coagulation factor Xa
Coagulation Factor Xa, from uman plasma, sequence (P00742 235-488 limits assumed): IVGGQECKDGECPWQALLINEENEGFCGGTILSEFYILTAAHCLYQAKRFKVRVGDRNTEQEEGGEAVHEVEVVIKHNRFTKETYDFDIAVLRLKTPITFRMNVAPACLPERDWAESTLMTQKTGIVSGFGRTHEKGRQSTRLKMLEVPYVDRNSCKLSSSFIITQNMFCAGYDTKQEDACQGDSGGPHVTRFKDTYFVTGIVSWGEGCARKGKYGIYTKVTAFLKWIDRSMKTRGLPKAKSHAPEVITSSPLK
Coagulation Factor Xa, from uman plasma, sequence (P00742 41-179 limits assumed): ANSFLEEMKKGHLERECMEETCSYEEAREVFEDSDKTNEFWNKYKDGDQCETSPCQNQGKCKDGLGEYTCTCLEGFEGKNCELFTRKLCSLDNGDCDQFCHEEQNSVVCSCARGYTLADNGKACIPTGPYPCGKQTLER

[8] = molecular target: Chymotrypsin, from human pancreas (Homo sapiens, UniProt P17538); assay: Enzymatic assay, chymotrypsin
Chymotrypsin, from human pancreas, sequence (P17538 19-263): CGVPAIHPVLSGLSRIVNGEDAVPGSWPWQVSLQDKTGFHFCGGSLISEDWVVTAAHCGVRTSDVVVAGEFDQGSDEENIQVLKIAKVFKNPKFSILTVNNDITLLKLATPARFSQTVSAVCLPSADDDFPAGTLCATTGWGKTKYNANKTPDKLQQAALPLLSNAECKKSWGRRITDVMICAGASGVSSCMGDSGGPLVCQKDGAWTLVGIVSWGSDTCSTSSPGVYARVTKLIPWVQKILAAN

[9] = molecular target: Urokinase from human urine (Homo sapiens, UniProt P00749); assay: Enzymatic assay, urokinase

SMILES	Chymase at 100 μM % [1] [%]	Elastase at 100 μM % [2] [at %]	Trypsin at 100 μM % [3] [%]	IC50 ([4]; Cathepsin G IC50) [nM]	IC50 ([2]; Elastase IC50) [nM]	Tryptase at 100 μM % [5] [%]	Thrombin at 100 μM % [6] [%]	FXa at 100 μM % [7] [%]	Chymotrypsin at 100 μM % [8] [%]	Cathepsin G at 100 μM % [4] [at 100%]	IC50 [8] [nM]	Urokinase at 100 μM % [9] [%]	IC50 ([2]; read-out: Elastase IC50) [nM]	IC50 ([4]; read-out: Cathepsin G IC50) [nM]
CCCC[C@@H]1NC(=O)[C@@H]2CCCN2C(=O)[C@H]2CCCN2C(=O)[C@H](CO)NC(=O)[C@@H]2CSSC[C@H](NC1=O)C(=O)N[C@@H]([C@@H](C)O)C(=O)N[C@@H](CCCCN)C(=O)N[C@@H](CO)C(=O)N[C@@H](CC(=O)O)C(=O)N1CCC[C@H]1C(=O)N1CCC[C@H]1C(=O)N[C@@H]([C@@H](C)CC)C(=O)N2 [Ex. 10] (HELM PEPTIDE1{[Nle].C.T.K.S.D.P.P.I.C.S.[dP].P}$PEPTIDE1,PEPTIDE1,2:R3-10:R3|PEPTIDE1,PEPTIDE1,1:R1-13:R2$$$V2.0)	9.4	0.3	89.9	75										
CCCC[C@@H]1NC(=O)[C@H](CCC(=O)O)NC(=O)[C@@H](CCCCN)NC(=O)[C@H](Cc2ccc(O)cc2)NC(=O)[C@@H]2CSSC[C@H](NC1=O)C(=O)N[C@@H]([C@@H](C)O)C(=O)N[C@@H](C)C(=O)N[C@@H](CO)C(=O)N[C@@H]([C@@H](C)CC)C(=O)N1CCC[C@H]1C(=O)N1CCC[C@H]1C(=O)N[C@@H](CCC(N)=O)C(=O)N2 [Ex. 127] (HELM PEPTIDE1{[Nle].C.T.A.S.I.P.P.Q.C.Y.[dK].E}$PEPTIDE1,PEPTIDE1,2:R3-10:R3|PEPTIDE1,PEPTIDE1,1:R1-13:R2$$$V2.0)	1.9		0		29	0	3.7	13.3	47.2	64				
CCCC[C@@H]1NC(=O)[C@@H]2CCCN2C(=O)[C@H]2CCCN2C(=O)[C@H](Cc2ccc(O)cc2)NC(=O)[C@@H]2CSSC[C@H](NC1=O)C(=O)N[C@@H](C)C(=O)N[C@@H](C)C(=O)N[C@@H](CO)C(=O)N[C@@H]([C@@H](C)CC)C(=O)N1CCC[C@H]1C(=O)N1CCC[C@H]1C(=O)N[C@@H](CCC(N)=O)C(=O)N2 [Ex. 86] (HELM PEPTIDE1{[Nle].C.A.A.S.I.P.P.Q.C.Y.[dP].P}$PEPTIDE1,PEPTIDE1,2:R3-10:R3|PEPTIDE1,PEPTIDE1,1:R1-13:R2$$$V2.0)	0		0		26	0	10.7	24.8		47	> 100000			
CC[C@H](C)[C@@H]1NC(=O)[C@@H]2CCCN2C(=O)[C@@H]2CCCN2C(=O)[C@H](CC(=O)O)NC(=O)[C@H](CO)NC(=O)[C@H](CCCCN)NC(=O)[C@H]([C@@H](C)O)NC(=O)[C@@H]2CSSC[C@H](NC1=O)C(=O)N[C@@H](CO)C(=O)N1CCC[C@@H]1C(=O)N1CCC[C@H]1C(=O)N[C@@H](C1CCCCC1)C(=O)N2 [Ex. 11] (HELM PEPTIDE1{[O=C([C@@H](N[*:1])C1CCCCC1)[*:2]].C.T.K.S.D.P.P.I.C.S.[dP].P}$PEPTIDE1,PEPTIDE1,2:R3-10:R3|PEPTIDE1,PEPTIDE1,1:R1-13:R2$$$V2.0)	12.1	19	6.5	95					73.6					
CCCC[C@@H]1NC(=O)[C@H](CCCNC(=N)N)NC(=O)[C@@H]2CCCN2C(=O)[C@H]2CCCN2C(=O)[C@H](Cc2ccccc2)NC(=O)[C@H](CCCC)NC(=O)[C@H]([C@@H](C)CC)NC(=O)[C@@H]2CCCN2C(=O)[C@@H]2CCCN2C(=O)[C@H](CC(=O)O)NC(=O)[C@H](CO)NC(=O)[C@H](CCCCN)NC(=O)[C@H]([C@@H](C)O)NC1=O [Ex. 8] (HELM PEPTIDE1{R.[Nle].T.K.S.D.P.P.I.[Nle].F.[dP].P}$PEPTIDE1,PEPTIDE1,1:R1-13:R2$$$V2.0)	71.7	0.8	74.2	126					5.6					
CCCC[C@@H]1NC(=O)[C@@H]2CCCN2C(=O)[C@H]2CCCN2C(=O)[C@H](Cc2ccc(O)cc2)NC(=O)[C@@H]2CSSC[C@H](NC1=O)C(=O)N[C@@H]([C@@H](C)O)C(=O)N[C@@H](C)C(=O)N[C@@H](CO)C(=O)N[C@@H](CC(C)(C)C)C(=O)N1CCC[C@H]1C(=O)N1CCC[C@H]1C(=O)N[C@@H](CCC(N)=O)C(=O)N2 [Ex. 85] (HELM PEPTIDE1{[Nle].C.T.A.S.[CC(C)(C)C[C@H](N[*:1])C(=O)[*:2]].P.P.Q.C.Y.[dP].P}$PEPTIDE1,PEPTIDE1,2:R3-10:R3|PEPTIDE1,PEPTIDE1,1:R1-13:R2$$$V2.0)			0		28		12.6	25.6			> 20000			
CC[C@H](C)[C@@H]1NC(=O)[C@@H]2CCCN2C(=O)[C@@H]2CCCN2C(=O)[C@H](CC(=O)O)NC(=O)[C@H](CO)NC(=O)[C@H](CCCCN)NC(=O)[C@H]([C@@H](C)O)NC(=O)[C@@H]2CSSC[C@H](NC1=O)C(=O)N[C@@H](CO)C(=O)N[C@H](C)C(=O)N1CCC[C@H]1C(=O)N[C@@H](Cc1ccccc1)C(=O)N2 [Ex. 49] (HELM PEPTIDE1{F.C.T.K.S.D.P.P.I.C.S.[dA].P}$PEPTIDE1,PEPTIDE1,2:R3-10:R3|PEPTIDE1,PEPTIDE1,1:R1-13:R2$$$V2.0)	0		96	82	> 10000	30.5	7.9		0			6.2		
CC[C@H](C)[C@@H]1NC(=O)[C@@H]2CCCN2C(=O)[C@@H]2CCCN2C(=O)[C@H](CC(=O)O)NC(=O)[C@H](CO)NC(=O)[C@H](CCCCN)NC(=O)[C@H]([C@@H](C)O)NC(=O)[C@@H]2CSSC[C@H](NC1=O)C(=O)N[C@@H](CCCNC(=N)N)C(=O)N1CCC[C@@H]1C(=O)N1CCC[C@H]1C(=O)N[C@@H](Cc1ccccc1Cl)C(=O)N2 [Ex. 13] (HELM PEPTIDE1{[O=C([C@H](Cc1ccccc1Cl)N[*:1])[*:2]].C.T.K.S.D.P.P.I.C.R.[dP].P}$PEPTIDE1,PEPTIDE1,2:R3-10:R3|PEPTIDE1,PEPTIDE1,1:R1-13:R2$$$V2.0)	19.9	8.2	95.0	100										
C[C@@H](O)[C@@H]1NC(=O)[C@@H]2CSSC[C@H](NC(=O)[C@H](CC3CCCCC3)NC(=O)[C@@H]3CCCN3C(=O)[C@@H]3CCCN3C(=O)[C@H](CC(=O)O)NC(=O)[C@H](CO)NC(=O)[C@H](CCCCN)NC1=O)C(=O)N[C@@H](CO)C(=O)N1CCC[C@@H]1C(=O)N1CCC[C@H]1C(=O)N[C@@H](Cc1ccccc1)C(=O)N2 [compound 54] (HELM PEPTIDE1{F.C.T.K.S.D.P.P.[Cha].C.S.[dP].P}$PEPTIDE1,PEPTIDE1,2:R3-10:R3|PEPTIDE1,PEPTIDE1,1:R1-13:R2$$$V2.0)	12.9		90						18			3.2	> 100000	66
